{
  "source": "patent US20090299034A1",
  "about": "“Collagen-related peptides” (priority 2007, published 2009)",
  "key": {"washed platelets [1]": {"system": "washed platelets", "experiment": "Human platelet aggregation assay", "assay_type": "cell-based", "conditions": "for EC50 ± SEM platelet aggregation: Table 3", "procedure": "Human platelet-rich plasma (PRP) concentrate from healthy volunteers was purchased from Biological Specialties, Inc. (Colmar, Pa.). […] The PRP was centrifuged at 730 g for 15 min. The resulting platelet pellet was washed twice in CGS buffer (13 mM sodium citrate, 30 mM glucose, 120 mM NaCl, pH 6.5) containing 1 U/mL apyrase (grade V, Sigma-Aldrich) and resuspended in Tyrode's buffer (140 mM NaCl, 2.7 mM KCl, 12 mM NaHCO3, 0.76 mM Na2HPO4, 5.5 mM dextrose, 5.0 mM Hepes, 0.2% BSA, pH 7.4). The “washed” platelets were diluted to 3×10^8 platelets/mL and kept >45 min at 37° C. before use.\nFor the assay, 105 μL of washed platelets, 2 mM CaCl2 and […] of fibrinogen were added to a 96-well microtiter plate. Platelet aggregation was initiated by the addition of serial concentrations of native collagen fibrils (equine type I; 92% identity with human collagen sequence; Chrono-log Corp., Havertown, Pa.) or test peptides. Buffer was added to one set of control wells. The assay plate was stirred constantly and intermittently placed in a microplate reader (Softmax, Molecular Devices, Menlo Park, Calif.) to read optical density (650 nm) at 0 and 5 min after the addition of the compound solutions. Aggregation was calculated as the decrease in optical density between the time-0 and 5-min measurements and expressed as percent of aggregation.\nPeptides were dissolved in PBS (pH 7) or water (final pH 5) to a concentration of 2 mg/mL. Some samples were heated in a water bath (70° C.) for 10 min, filtered through a 0.45-μm filter and incubated for 24 h or 7 days at 4° C. […] (H+F) and re-annealed at 4° C."}, "washed platelets [2]": {"system": "washed platelets", "experiment": "Inhibition of platelet aggregation induced by collagen or CRP trimer SEQ ID 145", "assay_type": "cell-based, human", "conditions": "GPIIb/IIIa antagonist at 10, 100 and 1000 nM, 5 min pre-incubation"}},
  "data": [
    {"compound": "Collagen", "values": [
      {"measurement": "EC50 values (±SEM) platelet aggregation", "setting": "washed platelets [1]; Example 6, FIG. 1, Table 4", "result": "0.56 ± 0.09", "unit": "µg/mL"},
      {"measurement": "EC50 ± SEM platelet aggregation", "setting": "washed platelets [1]; native collagen fibrils, no peptide preparation", "result": 0.25, "unit": "µg/mL"}
    ]},
    {"compound": "O=C(O)C[C@H](NC(=O)[C@@H]1CCCN(C(=O)CCC2CCNCC2)C1)c1cccnc1", "note": "[elarofiban]", "values": [
      {"measurement": "inhibition of platelet aggregation induced by CRP trimer having SEQ ID 145", "setting": "washed platelets [2]", "result": "dose-dependent inhibition"},
      {"measurement": "inhibition of platelet aggregation induced by collagen", "setting": "washed platelets [2]", "result": "dose-dependent inhibition"}
    ]},
    {"compound": "(Pro-Xaa-Gly)10 [SEQ ID 154]", "values": [
      {"measurement": "induction of platelet aggregation", "setting": "washed platelets [1]; Example 4", "result": "failed to aggregate platelets"},
      {"measurement": "stimulation of platelet aggregation", "setting": "washed platelets [1]; Example 6, FIG. 1", "result": "not effective"},
      {"measurement": "EC50 ± SEM platelet aggregation", "setting": "washed platelets [1]; PBS, H + F, pH 7, incubation 24 h", "result": "Not Active"}
    ]}
  ]
}
